In article PMC5654414, “In vitro and in vivo comparative and competitive activity-based protein profiling of GH29 α-L-fucosidases” (Chemical Science, 2015):

Experiments:
[1] = test system: purified α-L-fucosidase from Bacteroides thetaiotaomicron; assay: In vitro ABP labeling of purified bacterial α-L-fucosidase; type: binding
Method: All pre-incubations and ABP labeling-reactions occurred for 30 min at 37 °C. Total lysates (50 μg), medium (500 μg) or purified protein preparations (5 μg) were labeled with 1 μM JJB256 1 or JJB244 2, dissolved in 150 mM McIlvaine buffer, pH 4.5, incubating for 30 min at 37 °C. For ABPP, protein preparations were pre-incubated with compounds 4 (100 μM), 6 (100 μM), 7–13 (1 or 5 mM, specified in the main text) prior to the addition of 100 nM fluorescent ABPs. Influence of pH on ABP labeling involved pre-incubation at pH 3–10 prior to addition of 100 nM ABP 1. Direct labeling of retaining β-glucosidases occurred at pH 5.0 in conjunction with 100 nM ABP JJB75. Samples were then denatured with 5× Laemmli buffer (50% (v/v) 1 M Tris–HCl, pH 6.8, 50% (v/v) 100% glycerol, 10% (w/v) DTT, 10% (w/v) SDS, 0.01% (w/v) bromophenol blue), boiled for 4 min at 100 °C, and separated by gel electrophoresis on 10% (w/v) SDS-PAGE gels running continuously at 90 V.[13],[14] Wet slab-gels were scanned on fluorescence using a Typhoon Variable Mode Imager (Amersham Biosciences) using λEX 488 nm and λEM 520 nm (band pass filter 40 nm) for green fluorescent JJB256 1 and λEX 532 nm and λEM 610 nM (band pass filter 30 nm) for red fluorescent JJB244 2 and JJB75.

FUCA2 = biological target: T1, FUCA2 (Homo sapiens, UniProt Q9BTY2); assay: In vitro ABP labeling of FUCA2 overexpressed in COS cells; type: binding
T1 construct: expressed in transfected cells; host or cells: COS-7
T1 sequence (Q9BTY2 29-467): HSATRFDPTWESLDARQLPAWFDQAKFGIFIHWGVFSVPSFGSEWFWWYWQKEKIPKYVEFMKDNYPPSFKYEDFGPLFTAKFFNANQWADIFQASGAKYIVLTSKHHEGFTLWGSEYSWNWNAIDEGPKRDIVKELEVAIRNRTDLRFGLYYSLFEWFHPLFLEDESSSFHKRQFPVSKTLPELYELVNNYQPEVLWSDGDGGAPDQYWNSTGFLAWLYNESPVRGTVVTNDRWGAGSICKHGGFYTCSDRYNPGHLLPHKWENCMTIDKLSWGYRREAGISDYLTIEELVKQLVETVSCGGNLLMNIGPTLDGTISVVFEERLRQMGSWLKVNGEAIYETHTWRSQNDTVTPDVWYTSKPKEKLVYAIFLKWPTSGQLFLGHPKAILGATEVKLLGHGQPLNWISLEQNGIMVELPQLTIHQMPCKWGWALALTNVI
Description: Subsequently, we exposed lysates of spleens from a healthy human individual and a patient suffering from Gaucher disease to ABP 1.
The coding sequences of H. sapiens FUCA1 (NCBI reference sequence XM_005245821.1, using forward primer 5′-[…]-3′ and reverse primer 5′-[…]-3′), and of H. sapiens FUCA2 (NCBI reference sequence NM_032020.4, using forward primer 5′-[…] […]-3′ and reverse primer 5′-[…] […]-3′) were amplified via PCR and cloned into pDNOR-221 and thereafter sub-cloned in pcDNA™-DEST40 vector using the Gateway system (Invitrogen). Correctness of all constructs was verified by sequencing. Confluent COS-7 cells were transfected with pcDNA3.1 empty vector (Mock) or the vector with described insert in conjunction with FuGENE (Roche).
All pre-incubations and ABP labeling-reactions occurred for 30 min at 37 °C. Total lysates (50 μg), medium (500 μg) or purified protein preparations (5 μg) were labeled with 1 μM JJB256 1 or JJB244 2, dissolved in 150 mM McIlvaine buffer, pH 4.5, incubating for 30 min at 37 °C. […] Wet slab-gels were scanned on fluorescence using a Typhoon Variable Mode Imager (Amersham Biosciences) using λEX 488 nm and λEM 520 nm (band pass filter 40 nm) for green fluorescent JJB256 1 and λEX 532 nm and λEM 610 nM (band pass filter 30 nm) for red fluorescent JJB244 2 and JJB75.

CC1=CC(C)=[N+]2C1=C(CCCCc1cn(CCCCCCCC(=O)N3[C@@H]4[C@@H](C)[C@@H](O)[C@@H](O)[C@H](O)[C@@H]43)nn1)c1c(C)cc(C)n1[B-]2(F)F [compound 1]
labeling of enzyme [1]: efficiently labels
labeling of enzyme (FUCA2): labeled
